In the supplement of paper PMC11061612 one finds Bliss excess data, which are given here for 2 compounds.

Holding throughout (experiment): Bliss excess, mean over the matrix (fraction); higher = more synergy
One experiment deals with A704 (Kidney Carcinoma). A digest of the protocol: (§1)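 Cell lines grown in DMEM/F12 or RPMI with 10% FBS were plated in 1536-well plates and held 24 hours at 37°C, 5% CO2 before 72 hours of exposure to two-drug dose matrices, with DMSO typically at 0.2%. CellTiter-Glo 2.0 luminescence gave viability, which was converted to inhibition. Vehicle wells were set to 0 and blank wells to 1. Combination Emax is the second-highest inhibition in the matrix, and Bliss excess is the observed combination effect minus the expected EA + EB − EA·EB, where EA and EB are the single-agent effects.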

The subject of experiment [1] is DG-75 (Burkitt's Lymphoma). The essentials: as §1
Another experiment deals with EW-3 (Ewing's Sarcoma). The essentials: as §1
Experiment [2] has as its system HC-1 (Other Blood Carcinomas). A digest of the protocol: as §1
In experiment [3] the test system is HuP-T3 (Pancreatic Carcinoma). The essentials: as §1
In experiment [4] the test system is JHH-7 (Hepatocellular Carcinoma). A digest of the protocol:
as §1

For experiment [5], the system named is KLE (Endometrial Carcinoma). The essentials:
as §1

For experiment [6], the system named is KP-2 (Pancreatic Carcinoma). The essentials:
as §1

Experiment [7] concerns KU-19-19 (Bladder Carcinoma). The essentials: as §1
For experiment [8], the system named is MFE-319 (Endometrial Carcinoma). A digest of the protocol: as §1
Experiment [9] deals with OCUB-M (Breast Carcinoma). A digest of the protocol: as §1
Experiment [10] concerns SCC-3 (B-Cell Non-Hodgkin's Lymphoma). A digest of the protocol: as §1
The test system of experiment [11] is TGBC11TKB (Gastric Carcinoma). A digest of the protocol:
as §1

A further experiment concerns U-87-MG (Glioblastoma). A digest of the protocol: as §1

Structures are written as SMILES.

Take `C=CCn1c(=O)c2cnc(Nc3ccc(N4CCN(C)CC4)cc3)nc2n1-c1cccc(C(C)(C)O)n1` [AZD1775] + C1CN(CCC1(C(=O)N[C@@H](CCO)C2=CC=C(C=C2)Cl)N)C3=NC=NC4=C3C=CN4 [Capivasertib] (first compound max 3 µM, partner max 3 µM): the Bliss excess in the experiment with A704 (Kidney Carcinoma) is -0.0259; in experiment [1], 0.0215; in the experiment with EW-3 (Ewing's Sarcoma) it was -0.0571; in experiment [2], 0.0514; in experiment [3], -0.0608; in [4], -0.0045. Also, the Bliss excess in experiment [5] is -0.0627; in [6], -0.0475; in [7], -0.0174; in experiment [8] it was -0.0524; in experiment [9] it was -0.0436; in [10], 0.0613. Also, the figures for the Bliss excess (in experiment [11]; in the experiment on U-87-MG (Glioblastoma)) were -0.0422 and 0.0503, respectively.

As for `Cc1c2c(nn1C)CSCc1cc(n(C)n1)CSc1cc(c3ccccc3c1)OCCCc1c(C(=O)O)n(C)c3c-2c(Cl)ccc13` [AZD5991] + C1CN(CCC1(C(=O)N[C@@H](CCO)C2=CC=C(C=C2)Cl)N)C3=NC=NC4=C3C=CN4 [Capivasertib] (first compound max 1 µM, 7x7, partner max 3 µM), the Bliss excess in the experiment with A704 (Kidney Carcinoma) was -0.065; in [1], -0.0281; in the experiment on EW-3 (Ewing's Sarcoma) it was 0.0032; in experiment [2] it was -0.0475; in [3], -0.0186; in experiment [4], -0.0118. In addition, the Bliss excess in experiment [5] is -0.01; in [6] it was -0.01; in experiment [7], -0.0321; in experiment [8], 0.111; in experiment [9], 0.0321; in [10], 0.102. Moreover, the Bliss excess in [11] turned out to be 0.0116; in the experiment on U-87-MG (Glioblastoma) it was 0.0264.
